{"source": "patent US7687478B2", "about": "“Disialoundecasaccharide chain asparagine/fatty acid amide and medical drug containing the same” (priority 2003, dated 2010)", "data": [{"system": "influenza virus A/New Caledonia/20/99 (H1N1) (hemagglutinin)", "experiment": "Influenza virus (hemagglutinin) inhibiting activity with fowl blood cells", "format": "biochemical", "conditions": "A/New Caledonia/20/99 (H1N1) HA split fractions; 0.5% fowl hematid; 4° C., 60 minutes", "units": {"amount of derivative at which influenza virus (hemagglutinin) inhibiting activity was exhibited": "µmol"}, "values": [{"substance": "Asparagine-linked Disialoundecaoligosaccharide-behenic Acid Amide [derivative 6]", "amount of derivative at which influenza virus (hemagglutinin) inhibiting activity was exhibited": 37.5}, {"substance": "Asparagine-linked Disialoundecaoligosaccharide-decanoic Acid Amide [derivative 3]", "amount of derivative at which influenza virus (hemagglutinin) inhibiting activity was exhibited": 190.0}, {"substance": "Asparagine-linked Disialoundecaoligosaccharide-myristic Acid Amide [derivative 4]", "amount of derivative at which influenza virus (hemagglutinin) inhibiting activity was exhibited": 95.0}, {"substance": "Asparagine-linked Disialoundecaoligosaccharide-stearic Acid Amide [derivative 5]", "amount of derivative at which influenza virus (hemagglutinin) inhibiting activity was exhibited": 47.5}]}]}
